In US20090117205A1, “Quinolone-containing medicinal composition” (Daiichi Pharmaceutical CO., LTD, priority 2004, published 2009):
Converted amounts (≈) assume the structure as drawn. Read-outs that look alike come from different tables or passages of the source.

How the values were obtained:
Assay type in all cases: physicochemical
[1] = Evaluation of the concentration of the drug solution used for the lyophilization (cake formation)
[2] = Solubility of Compound (1) in water with change in pH
Description: Change in solubility with the change in pH of the drug solution of the Compound (1) was measured by the method commonly used in the art.

[3] = Stability test of the lyophilized product produced from drug solution of different pH
Source text: Lyophilized products were produced from the drug solution of different pH according to the evaluation of pH of the drug solution used for the lyophilization (1) to evaluate the stability of the Compound (1).

[4] = lyophilized product from drug solution pH 2.5, 60° C., 1 W
[5] = lyophilized product from drug solution pH 2.5, 60° C., 2 W
[6] = lyophilized product from drug solution pH 2.5, Initial
[7] = lyophilized product from drug solution pH 3.5, 60° C., 1 W
[8] = lyophilized product from drug solution pH 3.5, 60° C., 2 W
[9] = lyophilized product from drug solution pH 3.5, Initial
[10] = lyophilized product from drug solution pH 4.5, 60° C., 1 W
[11] = lyophilized product from drug solution pH 4.5, 60° C., 2 W
[12] = lyophilized product from drug solution pH 4.5, Initial

- Cake formation (number of vials with cake formation/number of vials tested) ([1]; drug solution 1.25 mg/mL): 0/5
- Cake formation (number of vials with cake formation/number of vials tested) ([1]; drug solution 2.5 mg/mL): 4/5
- Cake formation (number of vials with cake formation/number of vials tested) ([1]; drug solution 5 mg/mL): 4/5
- Cake formation (number of vials with cake formation/number of vials tested) ([1]; drug solution 10 mg/mL): 5/5
- Cake formation (number of vials with cake formation/number of vials tested) ([1]; drug solution 15 mg/mL): 5/5
- Cake formation (number of vials with cake formation/number of vials tested) ([1]; drug solution 20 mg/mL): 5/5
- solubility at 1 week ([2]; aqueous buffer, 5° C., pH 3.5, after 1 W): ≤ 19.6 mg/mL
- solubility at 0 week ([2]; aqueous buffer, 5° C., pH 3.5, immediately after preparation): ≤ 20.1 mg/mL
- solubility at 1 week ([2]; aqueous buffer, 5° C., pH 4.0, after 1 W): 19 mg/mL (≈ 47.3 mM)
- solubility at 0 week ([2]; aqueous buffer, 5° C., pH 4.0, immediately after preparation): ≤ 20.1 mg/mL
- solubility at 1 week ([2]; aqueous buffer, 5° C., pH 4.5, after 1 W): 18.8 mg/mL (≈ 46.8 mM)
- solubility at 0 week ([2]; aqueous buffer, 5° C., pH 4.5, immediately after preparation): ≤ 20 mg/mL
- solubility at 1 week ([2]; aqueous buffer, 5° C., pH 5.0, after 1 W): 18.4 mg/mL (≈ 45.8 mM)
- solubility at 1 week ([2]; aqueous buffer, 5° C., pH 5.5, after 1 W): 5.4 mg/mL (≈ 13.5 mM)
- solubility at 1 week ([2]; aqueous buffer, 5° C., pH 6.0, after 1 W): 0.7 mg/mL (≈ 1.74 mM)
- solubility at 1 week ([2]; aqueous buffer, 25° C., pH 3.5, after 1 W): ≤ 20.1 mg/mL
- solubility at 0 week ([2]; aqueous buffer, 25° C., pH 3.5, immediately after preparation): ≤ 20.1 mg/mL
- solubility at 1 week ([2]; aqueous buffer, 25° C., pH 4.0, after 1 W): 19.6 mg/mL (≈ 48.8 mM)
- solubility at 0 week ([2]; aqueous buffer, 25° C., pH 4.0, immediately after preparation): ≤ 20.1 mg/mL
- solubility at 1 week ([2]; aqueous buffer, 25° C., pH 4.5, after 1 W): 20.1 mg/mL (≈ 50.1 mM)
- solubility at 0 week ([2]; aqueous buffer, 25° C., pH 4.5, immediately after preparation): ≤ 20.1 mg/mL
- solubility at 1 week ([2]; aqueous buffer, 25° C., pH 5.0, after 1 W): 18.7 mg/mL (≈ 46.6 mM)
- solubility at 1 week ([2]; aqueous buffer, 25° C., pH 5.5, after 1 W): 4.8 mg/mL (≈ 12 mM)
- solubility at 1 week ([2]; aqueous buffer, 25° C., pH 6.0, after 1 W): 0.7 mg/mL (≈ 1.74 mM)
- solubility ([2]; aqueous buffer, pH up to pH 5, read-out: Concentration that can be attained in the solution): ≥ 10 mg/mL
- solubility ([2]; pH 4.5, aqueous buffer, pH up to 4.5, read-out: Concentration that can be attained in the solution): ≥ 20 mg/mL
- Stability of the Compound (1) in the lyophilized products ([3]; drug solution at a pH in the range of 2.5 to 4.5): sufficient stability
- Appearance [3, 4]: Yellow
- Content in relation to Initial amount (%) [3, 4]: 100.8%
- Content in relation to Nominal amount (%) [3, 4]: 96.0%
- Total amount of related substance (%) [3, 4]: 0.95%
- pH [3, 4]: 2.97
- Appearance [3, 5]: Yellow
- Content in relation to Initial amount (%) [3, 5]: 96.5%
- Content in relation to Nominal amount (%) [3, 5]: 91.9%
- Total amount of related substance (%) [3, 5]: 1.10%
- pH [3, 5]: 3.05
- Appearance [3, 6]: Yellow
- Content in relation to Initial amount (%) [3, 6]: 100.0%
- Content in relation to Nominal amount (%) [3, 6]: 95.3%
- Total amount of related substance (%) [3, 6]: 0.92%
- pH [3, 6]: 2.89
- Appearance [3, 7]: Yellow
- Content in relation to Initial amount (%) [3, 7]: 99.4%
- Content in relation to Nominal amount (%) [3, 7]: 96.0%
- Total amount of related substance (%) [3, 7]: 0.96%
- pH [3, 7]: 3.81
- Appearance [3, 8]: Yellow
- Content in relation to Initial amount (%) [3, 8]: 99.7%
- Content in relation to Nominal amount (%) [3, 8]: 96.2%
- Total amount of related substance (%) [3, 8]: 1.17%
- pH [3, 8]: 3.86
- Appearance [3, 9]: Yellow
- Content in relation to Initial amount (%) [3, 9]: 100.0%
- Content in relation to Nominal amount (%) [3, 9]: 96.5%
- Total amount of related substance (%) [3, 9]: 0.93%
- pH [3, 9]: 3.73
- Appearance [3, 10]: Yellow
- Content in relation to Initial amount (%) [3, 10]: 97.8%
- Content in relation to Nominal amount (%) [3, 10]: 91.1%
- Total amount of related substance (%) [3, 10]: 1.13%
- pH [3, 10]: 4.51
- Appearance [3, 11]: Yellow
- Content in relation to Initial amount (%) [3, 11]: 100.5%
- Content in relation to Nominal amount (%) [3, 11]: 93.5%
- Total amount of related substance (%) [3, 11]: 1.31%
- pH [3, 11]: 4.53
- Appearance [3, 12]: Yellow
- Content in relation to Initial amount (%) [3, 12]: 100.0%
- Content in relation to Nominal amount (%) [3, 12]: 93.1%
- Total amount of related substance (%) [3, 12]: 0.93%
- pH [3, 12]: 4.47
SMILES: COc1c(N2CC[C@@H](C3(N)CC3)C2)ccc2c(=O)c(C(=O)O)cn([C@@H]3C[C@@H]3F)c12 [Compound (1), 7-[3-(R)-(1-aminocyclopropyl)pyrrolidine-1-yl]-1-[2-(S)-fluoro-1-(R)-cyclopropyl]-1,4-dihydro-8-methoxy-4-oxoquinoline-3-carboxylic acid]
